Values of other authors in US6472370B1, “Anticonvulsant derivatives useful in treating post traumatic stress disorder” (Ortho-McNeil Pharmaceutical, Inc., priority 1998, dated 2002).
Read-outs that look alike come from different tables or passages of the source.

Assays:
[1] = tested on: simple and complex partial seizures and secondarily generalized seizures; details: clinical trials of human epilepsy; adjunctive therapy or monotherapy
kindling seizures = details: animal (rodent) model of kindling
[2] = tested on: seizures in several rodent models of epilepsy

In the case of `CC1(C)O[C@@H]2[C@@H](CO[C@@]3(COS(N)(=O)=O)OC(C)(C)O[C@@H]23)O1` [topiramate, 2,3:4,5-bis-O-(1-methylethylidene)-β-D-fructopyranose sulfamate], the “efficacy in treating simple and complex partial seizures and secondarily generalized seizures” value [1] is given as “effective”, the “block of seizures in kindled epilepsy / kindling seizures” value (kindling seizures) is given as “effectively block seizures” and the “block of seizures in kindled epilepsy / kindling seizures” value (kindling seizures; listed as Topiramate) is given as “effective”. The block of seizures [2] was “effectively block seizures”.
